This is an account of results in patent publication US8173631B2, “Cyclic amine compounds” (Daiichi Sankyo Company, Limited, priority 2008, dated 2012).

The target in the test is T1, human calcium-sensing receptor (CaSR) (Homo sapiens, UniProt P41180).
T1 construct: expressed in transfected cells
T1 sequence (P41180 20-1078): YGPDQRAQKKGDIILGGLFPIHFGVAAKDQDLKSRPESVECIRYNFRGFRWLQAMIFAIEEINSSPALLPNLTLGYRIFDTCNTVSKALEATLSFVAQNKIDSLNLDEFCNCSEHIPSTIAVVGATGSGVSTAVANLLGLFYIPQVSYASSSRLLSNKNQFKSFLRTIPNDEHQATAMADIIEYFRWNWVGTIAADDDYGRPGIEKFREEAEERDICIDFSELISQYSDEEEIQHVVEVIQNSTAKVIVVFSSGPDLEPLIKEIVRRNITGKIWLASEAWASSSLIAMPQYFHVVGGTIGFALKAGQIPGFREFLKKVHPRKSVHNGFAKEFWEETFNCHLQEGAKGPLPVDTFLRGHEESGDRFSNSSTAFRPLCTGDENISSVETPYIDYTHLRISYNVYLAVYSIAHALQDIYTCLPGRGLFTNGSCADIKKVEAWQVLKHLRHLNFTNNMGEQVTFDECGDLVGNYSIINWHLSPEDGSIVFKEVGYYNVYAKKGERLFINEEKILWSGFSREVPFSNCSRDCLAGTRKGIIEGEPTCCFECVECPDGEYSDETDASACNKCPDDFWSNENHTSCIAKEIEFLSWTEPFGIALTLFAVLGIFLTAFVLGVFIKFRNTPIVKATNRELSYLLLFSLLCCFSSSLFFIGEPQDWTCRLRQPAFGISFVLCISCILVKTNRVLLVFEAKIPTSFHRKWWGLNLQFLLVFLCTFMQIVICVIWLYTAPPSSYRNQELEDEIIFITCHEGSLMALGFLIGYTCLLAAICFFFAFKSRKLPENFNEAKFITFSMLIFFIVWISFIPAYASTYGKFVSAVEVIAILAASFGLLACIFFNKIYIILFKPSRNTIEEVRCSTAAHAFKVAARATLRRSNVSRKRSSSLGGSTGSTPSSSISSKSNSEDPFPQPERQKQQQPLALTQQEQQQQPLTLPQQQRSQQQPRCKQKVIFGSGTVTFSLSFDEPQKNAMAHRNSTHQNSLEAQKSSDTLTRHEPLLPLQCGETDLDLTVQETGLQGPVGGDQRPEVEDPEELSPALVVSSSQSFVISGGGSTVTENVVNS
The experiment in a line: Inhibitory activity on calcium-sensing receptor (CaSR), intracellular calcium increase as indicator (FLIPR, CHO/hCaSR). Type of test: cell-based. The note with it: CHO cells stably expressing human CaSR; inhibition of intracellular Ca increase induced by extracellular CaCl2. As for the experimental part:
Evaluation of inhibitory activity on calcium-sensing receptor (CaSR) using intracellular calcium increase as an indicator
The preparation which is prepared by adding CHO/hCaSR to F12 medium (manufactured by Invitrogen) containing 10% fetal bovine serum to have 2×10^5 cells/mL was applied to a 384-well in an amount of 50 μL/well, and then incubated overnight in a CO2 incubator. The culture supernatant was completely removed, the assay buffer (20 mM HEPES, HBSS (Ca and Mg free) containing 2.5 mM probenecid, pH 7.4) containing Calcium 3 (manufactured by Molecular Devices), i.e., a fluorescent intracellular calcium indicator, was added thereto in an amount of 25 μL/well, and the mixture was maintained for 1 hour in a CO2 incubator. Meanwhile, Calcium 3 was prepared according to the protocol enclosed in FLIPR Calcium 3 Assay Kit (manufactured by Molecular Devices). After maintaining it for 1 hour, a solution in which the test compound is prepared to have 2.1 to 20,000 nM (final concentration of 1.05 to 10,000 nM) by an assay buffer was added thereto in an amount of 25 μL/well, and maintained for 15 minutes in a CO2 incubator. Then, the CaCl2 solution prepared to have […] by using the assay buffer was added in an amount of 25 μL/well, and the resulting intracellular Ca increase (i.e., fluorescence intensity) was measured over time using a fluorescence imaging plate reader (FLIPR, manufactured by Molecular Devices). From the data obtained, the difference between the fluorescence intensity before the addition of CaCl2 solution and the maximum fluorescence intensity after the addition of CaCl2 solution was calculated, and the 50% inhibition concentration (IC50) of the test compound was obtained.
(In general: Calcium assays in cells follow changes in intracellular calcium, usually with a dye or a luminescent sensor.)
Consider `Cc1ccc(C[C@@H]2CCCN2C[C@@H](O)CO[C@H](C)c2ccccc2/C=C/C(=O)O)cc1F` [Example 1, (2E)-3-{2-[(1R)-1-({(2R)-3-[(2S)-2-(3-Fluoro-4-methylbenzyl)pyrrolidin-1-yl]-2-hydroxypropyl}oxy)ethyl]phenyl}prop-2-enoic acid], for which the IC50 (in general, the concentration that gives 50% inhibition) was at most 3.62 µM. With `Cc1ccc(C[C@@H]2CCCN2C[C@@H](O)CO[C@H](C)c2ccccc2CCC(=O)O)cc1F` [Example 2, 3-{2-[(1R)-1-({(2R)-3-[(2S)-2-(3-Fluoro-4-methylbenzyl)pyrrolidin-1-yl]-2-hydroxypropyl}oxy)ethyl]phenyl}propanoic acid] the figure was at most 3.61 µM. As for `Cc1ccc(C[C@@H]2CCCN2C[C@@H](O)CO[C@H](C)c2cccc(C)c2CCC(=O)O)cc1F` [Example 3, 3-{2-[(1R)-1-({(2R)-3-[(2S)-2-(3-Fluoro-4-methylbenzyl)pyrrolidin-1-yl]-2-hydroxypropyl}oxy)ethyl]-6-methylphenyl}propanoic acid], the IC50 was at most 3.5 µM. With `Cc1ccc([C@@H](C)OC[C@H](O)CN2CCC[C@H]2Cc2ccc(C)c(F)c2)c(CCC(=O)O)c1` [Example 4, 3-{2-[(1R)-1-({(2R)-3-[(2S)-2-(3-Fluoro-4-methylbenzyl)pyrrolidin-1-yl]-2-hydroxypropyl}oxy)ethyl]-5-methylphenyl}propanoic acid] the figure was at most 3.5 µM; with `Cc1ccc(C[C@@H]2CCCN2C[C@@H](O)CO[C@H](C)c2cccc(F)c2CCC(=O)O)cc1F` [Example 6, 3-{2-Fluoro-6-[(1R)-1-({(2R)-3-[(2S)-2-(3-fluoro-4-methylbenzyl)pyrrolidin-1-yl]-2-hydroxypropyl}oxy)ethyl]phenyl}propanoic acid], at most 3.47 µM; with `Cc1ccc(C[C@@H]2CCCN2C[C@@H](O)CO[C@H](C)c2cc(F)ccc2CCC(=O)O)cc1F` [Example 8, 3-{4-Fluoro-2-[(1R)-1-({(2R)-3-[(2S)-2-(3-fluoro-4-methylbenzyl)pyrrolidin-1-yl]-2-hydroxypropyl}oxy)ethyl]phenyl}propanoic acid], at most 3.47 µM. `Cc1ccc(C[C@@H]2CCCN2C[C@@H](O)CO[C@H](C)c2ccccc2CCCCC(=O)O)cc1F` [Example 13, 5-{2-[(1R)-1-({(2R)-3-[(2S)-2-(3-Fluoro-4-methylbenzyl)pyrrolidin-1-yl]-2-hydroxypropyl}oxy)ethyl]phenyl}pentanoic acid]: the IC50 is at most 3.39 µM.

As to `Cc1ccc(C[C@@H]2CCN2C[C@@H](O)CO[C@H](C)c2ccccc2CCCCC(=O)O)cc1F` [Example 15, 5-{2-[(1R)-1-({(2R)-3-[(2R)-2-(3-Fluoro-4-methylbenzyl)azetidin-1-yl]-2-hydroxypropyl}oxy)ethyl]phenyl}pentanoic acid], the IC50 was at most 3.5 µM. With `COc1cccc([C@@H](C)OC[C@H](O)CN2CCC[C@H]2Cc2ccc(C)c(F)c2)c1CCC(=O)O` [Example 18] the figure was at most 3.38 µM; with `CC[C@@H](OC[C@H](O)CN1CCC[C@H]1Cc1ccc(C)c(F)c1)c1ccccc1CCC(=O)O` [Example 19], at most 3.5 µM; with `Cc1ccc(C[C@@H]2CCCN2C[C@@H](O)CO[C@H](C)c2ccc(F)c(C)c2CCC(=O)O)cc1F` [Example 20], at most 3.36 µM. The figure for `CCC[C@@H](OC[C@H](O)CN1CCC[C@H]1Cc1ccc(C)c(F)c1)c1ccccc1CCC(=O)O` [Example 21] is at most 3.39 µM.

Take `Cc1ccc(C[C@@H]2CCCN2C[C@@H](O)CO[C@H](C)c2cc(F)c(C)cc2CCC(=O)O)cc1F` [Example 22]: the IC50 was at most 3.36 µM. With `Cc1ccc(C[C@@H]2CCCN2C[C@@H](O)CO[C@H](C)c2cc(F)c(C)cc2CCCCC(=O)O)cc1F` [Example 23] the figure was at most 3.18 µM. With `Cc1ccc(C[C@@H]2CCCN2C[C@@H](O)CO[C@H](C)c2cc(F)c(F)cc2CCC(=O)O)cc1F` [Example 26] the figure was at most 3.34 µM; with `Cc1ccc(C[C@@H]2CCCN2C[C@@H](O)CO[C@H](C)c2cc(F)cc(F)c2CCC(=O)O)cc1F` [Example 27], at most 3.34 µM; with `Cc1ccc(C[C@@H]2CCCN2C[C@@H](O)CO[C@@H](c2ccccc2CCC(=O)O)C2CC2)cc1F` [Example 29], at most 3.41 µM.

For `Cc1ccc(C[C@@H]2CCCN2C[C@@H](O)CO[C@H](C)c2cc(F)c(F)cc2CCCCC(=O)O)cc1F` [Example 30], the IC50 was at most 3.15 µM. With `Cc1ccc(C[C@@H]2CCCN2C[C@@H](O)COC(C)c2c(F)cccc2CCC(=O)O)cc1F` (some centres unmarked) [Example 31] the figure was at most 3.47 µM; with `Cc1ccc(C[C@@H]2CCCN2C[C@@H](O)COC(C)c2c(C)cccc2CCC(=O)O)cc1F` (some centres unmarked) [Example 32], at most 3.5 µM.

On to `COc1cc(F)cc([C@@H](C)OC[C@H](O)CN2CCC[C@H]2Cc2ccc(C)c(F)c2)c1CCC(=O)O` [Example 33], for which the IC50 is at most 3.25 µM.

`Cc1ccc(C[C@@H]2CCCN2C[C@@H](O)COC(C)c2c(CCC(=O)O)ccc(F)c2F)cc1F` (some centres unmarked) [Example 34]: the IC50 is at most 3.34 µM.

As to `C[C@@H](OC[C@H](O)CN1CCC[C@H]1Cc1ccc(F)c(F)c1)c1ccccc1CCC(=O)O` [Example 38], the IC50 was at most 3.58 µM.

Regarding `CCc1cccc(C[C@@H]2CCCN2C[C@@H](O)CO[C@H](C)c2ccccc2CCC(=O)O)c1` [Example 39], the IC50 was at most 3.64 µM.

On to `COc1cccc([C@@H](C)OC[C@H](O)CN2CCC[C@H]2Cc2ccc(C)c(F)c2)c1CCCCC(=O)O` [Example 42], for which the IC50 is at most 3.19 µM.

In the case of `CC[C@@H](OC[C@H](O)CN1CCC[C@H]1Cc1ccc(C)c(F)c1)c1cc(F)ccc1CCC(=O)O` [Example 43], the IC50 is at most 3.36 µM. With `CC[C@@H](OC[C@H](O)CN1CCC[C@H]1Cc1ccc(C)c(F)c1)c1cccc(F)c1CCC(=O)O` [Example 44] the figure was at most 3.36 µM; with `CC[C@@H](OC[C@H](O)CN1CCC[C@H]1Cc1ccc(C)c(F)c1)c1ccc(C)cc1CCC(=O)O` [Example 45], at most 3.39 µM; with `CC[C@@H](OC[C@H](O)CN1CCC[C@H]1Cc1ccc(C)c(F)c1)c1cccc(OC)c1CCC(=O)O` [Example 46], at most 3.28 µM.

On to `CC[C@@H](OC[C@H](O)CN1CCC[C@H]1Cc1ccc(C)c(F)c1)c1cccc(C)c1CCC(=O)O` [Example 47], for which the IC50 was at most 3.39 µM.

With `Cc1ccc(C[C@@H]2C[C@@H](F)CN2C[C@@H](O)CO[C@H](C)c2ccccc2CCC(=O)O)cc1F` [Example 48], the concentration for half-maximal inhibition (IC50) was at most 3.47 µM. Turning to `Cc1ccc(C[C@@H]2C[C@@H](O)CN2C[C@@H](O)CO[C@H](C)c2ccccc2CCC(=O)O)cc1F` [Example 49], the IC50 was at most 3.48 µM. With `Cc1ccc([C@@H](C)OC[C@H](O)CN2CCC[C@H]2Cc2ccc(C)c(F)c2)c(CCCCC(=O)O)c1` [Example 53] the figure was at most 3.29 µM; with `Cc1ccc(C[C@@H]2CCCN2C[C@@H](O)CO[C@H](C)c2ccc(F)cc2CCCCC(=O)O)cc1F` [Example 54], at most 3.27 µM. With `Cc1ccc(C[C@@H]2CCCN2C[C@@H](O)CO[C@H](C)c2cc(F)ccc2CCCCC(=O)O)cc1F` [Example 55] the figure was at most 3.27 µM; with `Cc1ccc(C[C@@H]2CCCN2C[C@@H](O)CO[C@H](C)c2cccc(C)c2CCCCC(=O)O)cc1F` [Example 57], at most 3.29 µM; with `Cc1ccc(C[C@@H]2CCCN2C[C@@H](O)CO[C@H](C)c2cccc(F)c2CCCCC(=O)O)cc1F` [Example 58], at most 3.27 µM. Turning to `Cc1ccc(C[C@@H]2CCCN2C[C@@H](O)CO[C@H](C)c2cc(C(F)(F)F)ccc2CCCCC(=O)O)cc1F` [Example 60], the IC50 was at most 2.97 µM.
